Tests used:
[1] = tested on: extracellular DA concentrations in the nucleus accumbens (NAcc); experiment: In vivo microdialysis of PCP-induced extracellular DA in the nucleus accumbens of freely moving rats; parameters: species or system rat (Sprague-Dawley)
Text: (§1) We explored the effects of increased endogenous GABA activity on PCP-induced extracellular DA concentrations in the prefrontal cortex (PFC) and nucleus accumbens (NAcc) of freely moving rats.
(§2) All animals were used under an IACUC-approved protocol and with strict adherence to the NIH guidelines. Adult male Sprague-Dawley rats (200-300 g, Taconic Farms), housed in the animals care facility under 12:12 light/dark conditions, were placed into 6 groups (n=3-6), anesthetized and siliconized guide cannulae were stereotactically implanted into the right NAcc (2.0 mm anterior and 1.0 mm lateral to bregms, and 7.0 mm ventral to the cortical surface) and prefrontal cortex (PFC) at least 4 days prior to study. Microdialysis probes (2.0 mm, Bioanalytical Systems, BAS, West Lafayette, Ind.) were positioned within the guide cannulae and artificial cerebrospinal fluid (ACSF, 155.0 mM […]) was administered through the probe using a CMA/100 microinfusion pump (BAS) at a flow rate of […].
Animals were placed in bowls, and probes were inserted and flushed with ACSF overnight. On the day of the study, a minimum of three samples were injected to determine baseline stability. Samples were collected for 20 min. and injected on-line (CMA/160, BAS). The average dopamine concentration of these three stable samples was defined as control (100%), and all subsequent treatment values were transformed to a percentage of that control. Upon establishing a stable baseline, the PCP was administered by intraperitoneal (i.p.) injection. The high performance liquid chromatography (HPLC) system consists of a BAS reverse-phase column (3.0μ C-18), a BAS LC-4C electrochemical transducer with a dual/glassy carbon electrode set at 650 mV, a computer that analyzes data on-line using a commercial software package (Chromograph Bioanalytical Systems), and a dual pen chart recorder. The mobile phase (flow rate 1.0 ml/min) consisted of 7.0% methanol, 50 mM sodium phosphate monobasic, 1.0 mM sodium octyl sulfate, and 0.1 mm […], pH 4.0. DA eluted at 7.5 min.
Gamma-vinyl GABA (GVG), an irreversible inhibitor of GABA-transaminase, was administered by intraperitoneal injection 2.5 hours prior to PCP (7 mg/kg). In all studies, animals were placed in the microdialysis bowls the night before the experiment and artificial cerebrospinal fluid (ACSF) was perfused through the microdialysis probes at a flow rate of 2.0 μl/min. At the end of each study, animals were sacrificed and their brains were removed and sectioned for probe placement verification.
Levels of extracellular DA were sampled from the NAcc continuously using a stereoaxically implanted probe. […]

[2] = tested on: extracellular DA concentrations in the prefrontal cortex (PFC); experiment: In vivo microdialysis of PCP-induced extracellular DA in the prefrontal cortex of freely moving rats; parameters: species or system rat (Sprague-Dawley); conditions: p<0.01
Text: as §1, §2
Animals were placed in bowls, and probes were inserted and flushed with ACSF overnight. On the day of the study, a minimum of three samples were injected to determine baseline stability. Samples were collected for 20 min. and injected on-line (CMA/160, BAS). […]

[3] = tested on: synaptic dopamine (11C-raclopride binding); experiment: PET study with 11C-raclopride, GVG and PCP in primates; format: in vivo, Papio anubis baboons

Row | SMILES | increase of DA concentrations above baseline in the NAcc ([1]; PCP alone, 7 mg/kg i.p., baseline = 100%, p<0.01) | increase of DA concentrations above baseline in the PFC ([2]; PCP alone, 7 mg/kg i.p., baseline = 100%) | attenuation of the DA response to PCP in the NAcc ([1]; GVG 150 mg/kg i.p. 2.5 hours prior to PCP (7 mg/kg)) | attenuation of the DA response to PCP in the NAcc ([1]; GVG 300 mg/kg i.p. 2.5 hours prior to PCP (7 mg/kg), p<0.01) | attenuation of the DA response to PCP in the NAcc ([1]; GVG 500 mg/kg i.p. 2.5 hours prior to PCP (7 mg/kg), p<0.001) | attenuation of PFC DA activity (response to PCP) ([2]; GVG pretreatment (300 mg/kg group) i.p. 2.5 hours prior to PCP (7 mg/kg)) | effect on PCP-induced increases in neostriatal synaptic DA assessed by PET ([3]; primate (baboon) brain) | effect on PCP-induced diminution of 11C-raclopride binding (increase in synaptic dopamine) ([3]; prior intravenous 300 mg/kg GVG, PCP 1 mg/kg, four baboons, all cases)
1 | c1ccc(C2(N3CCCCC3)CCCCC2)cc1 [PCP, Phencyclidine] | 117% | 407% | – | – | – | – | – | –
2 | C=CC(N)CCC(=O)O (racemic) [GVG, 4-amino-5-hexanoic acid] | – | – | no significant inhibition | 62% | 67% | 67% | significantly attenuated | prevented the diminution of ^11C-ralcopride binding
